Data as given in article PMC8883573, “New Insights Into the Function of Flavohemoglobin in Mycobacterium tuberculosis: Role as a NADPH-Dependent Disulfide Reductase and D-Lactate-Dependent Mycothione Reductase” (Frontiers in Cellular and Infection Microbiology, 2022).

Columns and labels:
[1] = test system: O=C(O)c1cc(SSc2ccc([N+](=O)[O-])c(C(=O)O)c2)ccc1[N+](=O)[O-]; assay: purified protein; assay type: biochemical, Mycolicibacterium smegmatis; conditions: pH 7.0
[2] = biological target: trxB (Mycobacterium tuberculosis, UniProt P9WHH1); assay: DTNB reduction, absorbance at […] nm; assay type: biochemical; conditions: 5 mM DTNB, 250 µM NADPH, 100 mM potassium phosphate pH 7.0, 2 mM EDTA, 25 °C
Sequence of trxB (P9WHH1 2-335): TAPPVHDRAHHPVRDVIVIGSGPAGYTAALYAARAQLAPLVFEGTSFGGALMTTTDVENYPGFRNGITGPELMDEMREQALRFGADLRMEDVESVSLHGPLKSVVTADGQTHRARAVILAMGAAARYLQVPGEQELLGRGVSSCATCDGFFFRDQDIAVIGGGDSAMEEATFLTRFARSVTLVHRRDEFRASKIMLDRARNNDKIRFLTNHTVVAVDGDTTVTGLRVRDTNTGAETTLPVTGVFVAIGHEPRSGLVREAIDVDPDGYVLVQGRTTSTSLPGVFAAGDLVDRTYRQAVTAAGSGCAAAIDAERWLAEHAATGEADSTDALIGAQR

Compound: MsFHbII (Mycolicibacterium smegmatis MC2 155)
- Km [1]: 93.7 ± 7.6 µM

Compound: NC(=O)C1=CN([C@@H]2O[C@H](COP(=O)(O)OP(=O)(O)OC[C@H]3O[C@@H](n4cnc5c(N)ncnc54)[C@H](OP(=O)(O)O)[C@@H]3O)[C@@H](O)[C@H]2O)C=CC1 [NADPH]
- DTNB reduction, absorbance at 412 nm ([2]; electron donor for DTNB reduction): NADPH-dependent reduction of DTNB by MtbFHb, MsFHbII, and trxB

Compound: O=C(O)c1cc(SSc2ccc([N+](=O)[O-])c(C(=O)O)c2)ccc1[N+](=O)[O-] [DTNB, 5,5’-dithiobis-(2-nitrobenzoic acid)]
- DTNB reduction, absorbance at 412 nm [2]: NADPH-dependent reduction of DTNB by MtbFHb, MsFHbII, and trxB
